≈ marks a conversion by molar mass, not a printed value.
Experiments:
[1] = system: Staphylococcus aureus-SMITH (GC 4543); assay: Acute lethal infection in mice (ED50); assay type: in vivo; settings: female CD-1 mice, intraperitoneal challenge, intravenous dose 30 min. after infection, 7 day survival ratios
How it was run: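 Lethal systemic infection model: female CD-1 mice, 20 ± 1-2 g, intraperitoneal challenge. Single intravenous treatment 30 min after infection; 7-day survival, pooled from 3 tests, gives ED50.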

Streptococcus sp. = assay: In vitro antibacterial evaluation: minimum inhibitory concentration (MIC), broth dilution method; assay type: cell-based
How it was run: (§1)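 Test strains, among them recent clinical isolates carrying methicillin, penicillin and/or vancomycin resistance, were inoculated at 5×10^5 CFU/mL. A broth dilution series spanning 64-0.06 μg/mL in Muller-Hinton II […] (NCCLS M7-A2) defined the MIC as the lowest growth-inhibiting concentration.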

Staphylococcus sp. = assay: as above; assay type: cell-based; settings: broth dilution, 18 hours at 35° C.; for MIC Staphylococcus aureus-SMITH (GC 4543): strain SMITH GC 4543
How it was run: as §1

Escherichia coli = assay: as above; assay type: cell-based; settings: strain GC 4560
How it was run: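 An MIC is reported for each organism as the least concentration giving inhibition, using broth dilution over 64-0.06 μg/mL with a 5×10^5 CFU/mL inoculum.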

Enterococcus sp. = assay: as above; assay type: cell-based; settings: for MIC Enterococcus faecalis (ATCC 29212): strain ATCC 29212; for MIC Enterococcus faecium (GC 2243): strain GC 2243; for MIC Enterococcus faecalis (GC 4552): strain GC 4552; for MIC Enterococcus faecalis (GC 4553): strain GC 4553; for MIC Enterococcus faecium (GC 4556): strain GC 4556; for MIC Enterococcus faecium (GC 4557): strain GC 4557; for MIC Enterococcus avium (GC 4558): strain GC 4558; for MIC Enterococcus faecalis (GC 6189): strain GC 6189
How it was run: as §1

[2] = Anatomic pathology (heart and kidney histopathology) in mice; assay type: in vivo, CD-1 mice; settings: 20 mg/kg intravenously daily for 9 days, microscopic histopathology on day 10
How it was run: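 Juvenile CD-1 mice (20 days old; 5 vehicle, 5 treated) received glycopeptide antibiotic 20 mg/kg i.v. daily for 9 days. Necropsied tissues formalin-fixed, paraffin-embedded, H&E stained and examined microscopically; findings graded slight to severe versus controls.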

[3] = Streptococcus agalactiae (GC 4564), broth dilution, 18 hours at 35° C.
[4] = Streptococcus pneumoniae (ATCC 6301), broth dilution, 18 hours at 35° C.
[5] = Streptococcus pneumoniae (GC 4565), broth dilution, 18 hours at 35° C.
[6] = Streptococcus pyogenes (GC 4563), broth dilution, 18 hours at 35° C.
[7] = Enterococcus faecalis (GC 2242), broth dilution, 18 hours at 35° C.
[8] = Enterococcus faecalis (GC 2691), broth dilution, 18 hours at 35° C.
[9] = Enterococcus faecalis (GC 3059), broth dilution, 18 hours at 35° C.

CC(c1ccccc1)C1NC(=O)CNC(=O)C(CO)NC(=O)C(C(O)C2CN(Cc3ccc(C(C)(C)C)cc3)C(=N)N2C2OC(CO)C(O)C(O)C2O)NC(=O)C(C(O)C2CNC(=N)N2)NC(=O)C(Cc2ccc(OC3OC(CO)C(OC4OC5COC6(OC5C(O)C4O)C4CC5CC(C4)CC6C5)C(O)C3O)cc2)NC1=O (stereo not drawn) [Example 77]
median effective dose (ED50), Staphylococcus aureus-SMITH (GC 4543) [1]: 4 mg/kg | MIC Streptococcus agalactiae (GC 4564) (Streptococcus sp.; [3]): 1 µg/mL (≈ 0.635 µM) | MIC Streptococcus pneumoniae (ATCC 6301) (Streptococcus sp.; [4]): 2 µg/mL (≈ 1.27 µM) | MIC Streptococcus pneumoniae (GC 4565) (Streptococcus sp.; [5]): 2 to 4 µg/mL | MIC Streptococcus pyogenes (GC 4563) (Streptococcus sp.; [6]): 1 µg/mL (≈ 0.635 µM) | MIC Streptococcus pneumoniae (ATCC 6301) (Streptococcus sp.; strain ATCC 6301): 2 µg/mL (≈ 1.27 µM) | MIC Streptococcus pyogenes (GC 4563) (Streptococcus sp.; strain GC 4563): 1 µg/mL (≈ 0.635 µM) | MIC Streptococcus agalactiae (GC 4564) (Streptococcus sp.; strain GC 4564): 1 µg/mL (≈ 0.635 µM) | MIC Streptococcus pneumoniae (GC 4565) (Streptococcus sp.; strain GC 4565): 2 to 4 µg/mL | MIC Coagulase Negative Staphylococcus (GC 4547) (Staphylococcus sp.): 4 µg/mL (≈ 2.54 µM) | MIC Coagulase Negative Staphylococcus (GC 4548) (Staphylococcus sp.): 4 µg/mL (≈ 2.54 µM) | MIC Coagulase Negative Staphylococcus (GC 4549) (Staphylococcus sp.): 4 to 8 µg/mL | MIC Coagulase Negative Staphylococcus (GC 4551) (Staphylococcus sp.): 8 µg/mL (≈ 5.08 µM) | MIC Coagulase Negative Staphylococcus (GC 6257) (Staphylococcus sp.): 2 µg/mL (≈ 1.27 µM) | MIC Staphylococcus aureus (ATCC 29213) (Staphylococcus sp.): 8 to 16 µg/mL | MIC Staphylococcus aureus (GC 1131) (Staphylococcus sp.): 16 µg/mL (≈ 10.2 µM) | MIC Staphylococcus aureus (GC 3051) (Staphylococcus sp.): 8 to 16 µg/mL | MIC Staphylococcus aureus (GC 3053) (Staphylococcus sp.): 16 µg/mL (≈ 10.2 µM) | MIC Staphylococcus aureus (GC 4541) (Staphylococcus sp.): 4 to 8 µg/mL | MIC Staphylococcus aureus (GC 4542) (Staphylococcus sp.): 8 to 16 µg/mL | MIC Staphylococcus aureus (GC 4544) (Staphylococcus sp.): 16 µg/mL (≈ 10.2 µM) | MIC Staphylococcus aureus (GC 4545) (Staphylococcus sp.): 8 µg/mL (≈ 5.08 µM) | MIC Staphylococcus aureus SMITH (GC 4543) (Staphylococcus sp.): 8 µg/mL (≈ 5.08 µM) | MIC Staphylococcus haemolyticus (GC 4546) (Staphylococcus sp.): 4 to 8 µg/mL | MIC Staphylococcus aureus-SMITH (GC 4543) (Staphylococcus sp.): 8 µg/mL (≈ 5.08 µM) | MIC Escherichia coli (GC 4560) (Escherichia coli): 4 µg/mL (≈ 2.54 µM) | MIC Enterococcus faecalis (GC 2242) (Enterococcus sp.; [7]): 16 µg/mL (≈ 10.2 µM) | MIC Enterococcus faecalis (GC 2691) (Enterococcus sp.; [8]): 16 µg/mL (≈ 10.2 µM) | MIC Enterococcus faecalis (GC 3059) (Enterococcus sp.; [9]): 16 µg/mL (≈ 10.2 µM) | MIC Enterococcus faecalis (ATCC 29212) (Enterococcus sp.): 16 µg/mL (≈ 10.2 µM) | MIC Enterococcus faecalis (GC 2242) (Enterococcus sp.; strain GC 2242): 16 µg/mL (≈ 10.2 µM) | MIC Enterococcus faecium (GC 2243) (Enterococcus sp.): 8 µg/mL (≈ 5.08 µM) | MIC Enterococcus faecalis (GC 2691) (Enterococcus sp.; strain GC 2691): 16 µg/mL (≈ 10.2 µM) | MIC Enterococcus faecalis (GC 3059) (Enterococcus sp.; strain GC 3059): 16 µg/mL (≈ 10.2 µM) | MIC Enterococcus faecalis (GC 4552) (Enterococcus sp.): 16 µg/mL (≈ 10.2 µM) | MIC Enterococcus faecalis (GC 4553) (Enterococcus sp.): 8 µg/mL (≈ 5.08 µM) | MIC Enterococcus faecium (GC 4556) (Enterococcus sp.): 16 µg/mL (≈ 10.2 µM) | MIC Enterococcus faecium (GC 4557) (Enterococcus sp.): 1 to 2 µg/mL | MIC Enterococcus avium (GC 4558) (Enterococcus sp.): 4 µg/mL (≈ 2.54 µM) | MIC Enterococcus faecalis (GC 6189) (Enterococcus sp.): 16 µg/mL (≈ 10.2 µM) | Anatomical Pathology (Day 10), Heart [2]: 0 | Anatomical Pathology (Day 10), Kidney [2]: 0

CC(c1ccccc1)C1NC(=O)CNC(=O)C(CO)NC(=O)C(C(O)C2CN(Cc3ccc4ccccc4c3)C(=N)N2C2OC(CO)C(O)C(O)C2O)NC(=O)C(C(O)C2CNC(=N)N2)NC(=O)C(Cc2ccc(OC3OC(CO)C(OC4OC5COC6(OC5C(O)C4O)C4CC5CC(C4)CC6C5)C(O)C3O)cc2)NC1=O (stereo not drawn) [Example 78]
median effective dose (ED50), Staphylococcus aureus-SMITH (GC 4543) [1]: 2 mg/kg | MIC Streptococcus agalactiae (GC 4564) (Streptococcus sp.; [3]): 1 µg/mL (≈ 0.638 µM) | MIC Streptococcus pneumoniae (ATCC 6301) (Streptococcus sp.; [4]): 1 µg/mL (≈ 0.638 µM) | MIC Streptococcus pneumoniae (GC 1894) (Streptococcus sp.; Streptococcus pneumoniae (GC 1894), broth dilution, 18 hours at 35° C.): 0.25 µg/mL (≈ 0.159 µM) | MIC Streptococcus pneumoniae (GC 4565) (Streptococcus sp.; [5]): 2 µg/mL (≈ 1.28 µM) | MIC Streptococcus pyogenes (GC 4563) (Streptococcus sp.; [6]): 0.5 µg/mL (≈ 0.319 µM) | MIC Streptococcus pneumoniae (ATCC 6301) (Streptococcus sp.; strain ATCC 6301): 1 µg/mL (≈ 0.638 µM) | MIC Streptococcus pneumoniae (GC 1894) (Streptococcus sp.; strain GC 1894): 0.25 µg/mL (≈ 0.159 µM) | MIC Streptococcus pyogenes (GC 4563) (Streptococcus sp.; strain GC 4563): 0.5 µg/mL (≈ 0.319 µM) | MIC Streptococcus agalactiae (GC 4564) (Streptococcus sp.; strain GC 4564): 1 µg/mL (≈ 0.638 µM) | MIC Streptococcus pneumoniae (GC 4565) (Streptococcus sp.; strain GC 4565): 2 µg/mL (≈ 1.28 µM) | MIC Coagulase Negative Staphylococcus (GC 4547) (Staphylococcus sp.): 4 µg/mL (≈ 2.55 µM) | MIC Coagulase Negative Staphylococcus (GC 4548) (Staphylococcus sp.): 4 µg/mL (≈ 2.55 µM) | MIC Coagulase Negative Staphylococcus (GC 4549) (Staphylococcus sp.): 8 µg/mL (≈ 5.1 µM) | MIC Coagulase Negative Staphylococcus (GC 4551) (Staphylococcus sp.): 8 µg/mL (≈ 5.1 µM) | MIC Coagulase Negative Staphylococcus (GC 6257) (Staphylococcus sp.): 2 µg/mL (≈ 1.28 µM) | MIC Staphylococcus aureus (ATCC 29213) (Staphylococcus sp.): 8 µg/mL (≈ 5.1 µM) | MIC Staphylococcus aureus (GC 1131) (Staphylococcus sp.): 8 µg/mL (≈ 5.1 µM) | MIC Staphylococcus aureus (GC 3051) (Staphylococcus sp.): 8 µg/mL (≈ 5.1 µM) | MIC Staphylococcus aureus (GC 3053) (Staphylococcus sp.): 8 µg/mL (≈ 5.1 µM) | MIC Staphylococcus aureus (GC 4541) (Staphylococcus sp.): 4 µg/mL (≈ 2.55 µM) | MIC Staphylococcus aureus (GC 4542) (Staphylococcus sp.): 8 µg/mL (≈ 5.1 µM) | MIC Staphylococcus aureus (GC 4544) (Staphylococcus sp.): 8 µg/mL (≈ 5.1 µM) | MIC Staphylococcus aureus (GC 4545) (Staphylococcus sp.): 8 µg/mL (≈ 5.1 µM) | MIC Staphylococcus aureus SMITH (GC 4543) (Staphylococcus sp.): 4 µg/mL (≈ 2.55 µM) | MIC Staphylococcus haemolyticus (GC 4546) (Staphylococcus sp.): 4 µg/mL (≈ 2.55 µM) | MIC Staphylococcus aureus-SMITH (GC 4543) (Staphylococcus sp.): 4 µg/mL (≈ 2.55 µM) | MIC Escherichia coli (GC 4560) (Escherichia coli): 4 µg/mL (≈ 2.55 µM) | MIC Enterococcus faecalis (GC 2242) (Enterococcus sp.; [7]): 16 µg/mL (≈ 10.2 µM) | MIC Enterococcus faecalis (GC 2691) (Enterococcus sp.; [8]): 16 µg/mL (≈ 10.2 µM) | MIC Enterococcus faecalis (GC 3059) (Enterococcus sp.; [9]): 16 µg/mL (≈ 10.2 µM) | MIC Enterococcus faecalis (ATCC 29212) (Enterococcus sp.): 8 µg/mL (≈ 5.1 µM) | MIC Enterococcus faecalis (GC 2242) (Enterococcus sp.; strain GC 2242): 16 µg/mL (≈ 10.2 µM) | MIC Enterococcus faecium (GC 2243) (Enterococcus sp.): 8 µg/mL (≈ 5.1 µM) | MIC Enterococcus faecalis (GC 2691) (Enterococcus sp.; strain GC 2691): 16 µg/mL (≈ 10.2 µM) | MIC Enterococcus faecalis (GC 3059) (Enterococcus sp.; strain GC 3059): 16 µg/mL (≈ 10.2 µM) | MIC Enterococcus faecalis (GC 4552) (Enterococcus sp.): 8 µg/mL (≈ 5.1 µM) | MIC Enterococcus faecalis (GC 4553) (Enterococcus sp.): 8 µg/mL (≈ 5.1 µM) | MIC Enterococcus faecalis (GC 4554) (Enterococcus sp.; strain GC 4554): 16 µg/mL (≈ 10.2 µM) | MIC Enterococcus faecium (GC 4556) (Enterococcus sp.): 16 µg/mL (≈ 10.2 µM) | MIC Enterococcus faecium (GC 4557) (Enterococcus sp.): 2 µg/mL (≈ 1.28 µM) | MIC Enterococcus avium (GC 4558) (Enterococcus sp.): 4 µg/mL (≈ 2.55 µM) | MIC Enterococcus faecalis (GC 6189) (Enterococcus sp.): 16 µg/mL (≈ 10.2 µM) | Anatomical Pathology (Day 10), Heart [2]: 0 | Anatomical Pathology (Day 10), Kidney [2]: ++

— patent US8247211B2, “Glycopeptide antibiotics” (American Cyanamid Company, priority 2001, dated 2012)
